Reference: ChEMBL document CHEMBL1201862, “PubChem BioAssay data set” (2004)
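Each compound was tested at five concentrations against cells in 96-well plates for 48 hours. Abbreviation: GI50, concentration required for 50% inhibition of growth.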 Calls of active or inactive are those of the source. Rule as the data show it: active = GI50 up to about 1.1 µM and inactive = higher.

What was measured:
Test in all cases: inhibition of tumour cell growth, NCI panel, 48 h
[1] = system: K562
[2] = system: MDA-MB-231
[3] = system: HCT-116
[4] = system: T47D
[5] = system: OVCAR-5
[6] = system: SR
[7] = system: LOX IMVI
[8] = system: UACC-257
[9] = system: HL-60
[10] = system: MDA-N
[11] = system: BT-549
[12] = system: SF-295
[13] = system: Malme-3M
[14] = system: SNB-75
[15] = system: CCRF-CEM
[16] = system: SF-539
[17] = system: OVCAR-3
[18] = system: 786-0
[19] = system: OVCAR-4
[20] = system: NCI-H460

Compound	GI50 [1]	GI50 [2]	GI50 [3]	GI50 [4]	GI50 [5]	GI50 [6]	GI50 [7]	GI50 [8]	GI50 [9]	GI50 [10]	GI50 [11]	GI50 [12]	GI50 [13]	GI50 [14]	GI50 [15]	GI50 [16]	GI50 [17]	GI50 [18]	GI50 [19]	GI50 [20]
CN1CN(c2ccccc2)C2(CCN(Cc3csc4ccccc34)CC2)C1=O	5.45 µM (inactive)	> 10 µM (inactive)	5.35 µM (inactive)	5.11 µM (inactive)	1.63 µM (inactive)	4.45 µM (inactive)	11.8 µM (inactive)	13.2 µM (inactive)	4.39 µM (inactive)	15.2 µM (inactive)	7.35 µM (inactive)	11.8 µM (inactive)	17.2 µM (inactive)	23.7 µM (inactive)	17.5 µM (inactive)	15.1 µM (inactive)	8.85 µM (inactive)	19.4 µM (inactive)		
COc1ccc(Cc2ccccc2C(=O)O)c2ccccc12	37 µM (inactive)	32 µM (inactive)	20.7 µM (inactive)	44.4 µM (inactive)	24.3 µM (inactive)	31.5 µM (inactive)	23.2 µM (inactive)	24.7 µM (inactive)	21 µM (inactive)	27.6 µM (inactive)	39.2 µM (inactive)	28.4 µM (inactive)	21.8 µM (inactive)	34.4 µM (inactive)	26.1 µM (inactive)		20.7 µM (inactive)	34.2 µM (inactive)	36.6 µM (inactive)	18.8 µM (inactive)
CN(C)CCn1c(=O)c2ccc3c4c(nn3CCN(C)C)c3ccccc3n(c1=O)c24	0.146 µM (active)	0.637 µM (active)	0.193 µM (active)	0.524 µM (active)	0.485 µM (active)	< 0.127 µM (active)	0.214 µM (active)	1.12 µM (inactive)	0.598 µM (active)	0.248 µM (active)	1.84 µM (inactive)	0.0292 µM (active)	0.887 µM (active)	< 0.0146 µM (active)	0.178 µM (active)	0.571 µM (active)	0.431 µM (active)	< 0.121 µM (active)	0.141 µM (active)	< 0.122 µM (active)
Cc1cc2c(=Cc3ccc(N(C)C)cc3)c3ccccc3n2[n+]1C	0.227 µM (active)	0.847 µM (active)	0.365 µM (active)	0.282 µM (active)	5.87 µM (inactive)	0.0865 µM (active)	0.458 µM (active)	0.207 µM (active)	1.39 µM (inactive)	0.383 µM (active)	0.537 µM (active)	1.05 µM (active)	1.08 µM (active)	0.409 µM (active)	0.944 µM (active)	0.641 µM (active)	0.313 µM (active)	0.607 µM (active)	0.641 µM (active)	0.393 µM (active)
O=C1C=CC(=O)c2c1cc([N+](=O)[O-])c1ccoc21	2.75 µM (inactive)	21.3 µM (inactive)	6.03 µM (inactive)	2.8 µM (inactive)	18.5 µM (inactive)	5.37 µM (inactive)	9.66 µM (inactive)	10.7 µM (inactive)	0.743 µM (active)	17.1 µM (inactive)	16.9 µM (inactive)	19.1 µM (inactive)		26.1 µM (inactive)	2.1 µM (inactive)	27.2 µM (inactive)	11.5 µM (inactive)	1.77 µM (inactive)	18.9 µM (inactive)	18.2 µM (inactive)
Clc1nc(Cl)c(Cc2ccccc2)c(Cl)n1	3.08 µM (inactive)	3.75 µM (inactive)	1.91 µM (inactive)	9.12 µM (inactive)	21.8 µM (inactive)	4.26 µM (inactive)	3.03 µM (inactive)	> 10 µM (inactive)	7.45 µM (inactive)	3.59 µM (inactive)	3.37 µM (inactive)	14.4 µM (inactive)	5.35 µM (inactive)	5.52 µM (inactive)	3.27 µM (inactive)	5.3 µM (inactive)	2.43 µM (inactive)	2.36 µM (inactive)	3.67 µM (inactive)	> 10 µM (inactive)
CCOP(=O)(OCC)/C(F)=C/c1ccccc1	> 100 µM (inactive)	> 100 µM (inactive)	> 100 µM (inactive)	> 100 µM (inactive)	> 100 µM (inactive)	> 100 µM (inactive)	> 100 µM (inactive)	> 100 µM (inactive)	> 100 µM (inactive)	> 100 µM (inactive)	> 100 µM (inactive)	> 100 µM (inactive)	> 100 µM (inactive)	> 100 µM (inactive)	> 100 µM (inactive)	> 100 µM (inactive)	> 100 µM (inactive)	> 100 µM (inactive)	> 100 µM (inactive)	> 100 µM (inactive)
